We go through 1 compound from paper PMC8775935, “Chebulinic Acid Suppresses Adipogenesis in 3T3-L1 Preadipocytes by Inhibiting PPP1CB Activity” (International Journal of Molecular Sciences, 2022).

Each structure is given as a SMILES string.

In this test the target is protein phosphatase-1 catalytic subunit beta (PPP1CB) (Homo sapiens, UniProt P62140). Kind of test: DiFMUP fluorescence phosphatase assay, dose-response. Type of test: biochemical.
protein phosphatase-1 catalytic subunit beta (PPP1CB), sequence (P62140 1-266): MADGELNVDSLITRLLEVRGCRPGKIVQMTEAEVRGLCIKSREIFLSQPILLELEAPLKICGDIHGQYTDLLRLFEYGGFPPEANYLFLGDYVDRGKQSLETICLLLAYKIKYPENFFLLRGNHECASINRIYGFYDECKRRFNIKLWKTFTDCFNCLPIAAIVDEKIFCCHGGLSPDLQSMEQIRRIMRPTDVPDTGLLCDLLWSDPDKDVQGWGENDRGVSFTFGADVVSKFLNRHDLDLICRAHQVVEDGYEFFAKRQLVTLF

For the compound `O=C(O)C[C@@H]1C(=O)O[C@H]2[C@H](OC(=O)c3cc(O)c(O)c(O)c3)[C@@H](OC(=O)c3cc(O)c(O)c4c3[C@H]1[C@H](O)C(=O)O4)[C@H](OC(=O)c1cc(O)c(O)c(O)c1)O[C@@H]2COC(=O)c1cc(O)c(O)c(O)c1` [compound 147, chebulinic acid], the IC50 – broadly, the concentration that inhibits the measured activity by half – is 300 nM.
